In patent publication US12098147B2, “Compound having novel structure, complex comprising same, anti-cancer pharmaceutical composition, and anti-cancer drug” (ETNOVA THERAPEUTICS CORP., priority 2018, dated 2024):
Like-named read-outs stand apart in the source and are kept apart here.

How the values were obtained:
AML12 = assay: CCK-8 cell viability, AML-12 normal liver cell line; type: cell-based; details: for IC50: serum-free medium, 24 hours, CCK-8, mean ± SD of 2 to 3 experiments; for toxicity against normal hepatocytes, in words: normal hepatocytes (AML12), FIG. 4
Description: (§1) CCK-8 (Cell counting kit-8) is analyzed using a highly water-soluble tetrazolium salt-[…]. [2-(2-methoxy-4-nitrophenyl)-3-(4-nitrophenyl)(2,4-disulfophenyl)-2H-tetrazolium, monosodium salt] is reduced under the presence of an electron medium to produces a water-soluble formazan orange dye. The amount of the formazan dye produced by dehydrogenase in a cell is directly proportional to the number of living cells.
(§2) In an experimental method for evaluating the properties of the compounds according to the present disclosure, various cancer cell lines derived from humans and normal cell lines of each tissue derived from humans and mice were used in this experiment. A complete growth medium corresponding to each cell line and having 10% of heat-inactivated FBS added thereto was used to maintain corresponding cells. The maintained cells were suspended in a volume of 200 μl at a density of 1 or 1.5×10^4 cells and planted in each well of a 96 well plate. The cells were attached to a 37° C. and 5% CO2 incubator for more than 14 hours, and we waited for a stable state. The next day, we removed the medium from the well. 100 μl of serum-free medium containing drugs of various concentrations (0 (control), 2.5, 5, 10, 20, 30, 40, 50, 100, 200 μM) was added to each well and the cells was cultured therein. On 22 hours after the incubation, 10 μl of CCK-8 solution was added to each well, followed by incubation for 2 hours. A plate on which the culture was completed was measured in terms of absorbance at 450 nm using a microplate reader.
(§3) Cell Viability Calculation:
(§4) • A: Absorbance value measured in a control well • B: Absorbance value measured in a well containing the drug
(§5) In Table 1 below, each compound was applied to the cells at 0, 2.5, 5, 10, 20, 30, 40, 50, 100, and 200 μM, and the cells was cultured in a medium free of serum for 24 hours. The measured absorbance value was converted to a % value based on a value of 0, such that a IC50 value was calculated. Each experiment was performed 2 to 3 times and a standard deviation value was obtained.

MDA-MB-231 = assay: CCK-8 cell viability, MDA-MB-231 breast cancer cell line; type: cell-based, human; details: 24 hours, mean ± SD of 2 to 3 experiments
Description: (§6) To identify the anticancer effect of the compounds L1, L2, and L3 according to Examples 1 to 3 of the present disclosure, and the complexes L1Pt, L2Pt, and L3Pt according to Examples 4 to 6 of the disclosure, the cell viability analysis of cancer cells using CCK-8 was performed on several cancer cell lines (colorectal cancer cell line (HT-29 cell line), breast cancer cell line (MCF-7 and MDA-MB-231), cervical cancer cell line (HeLa cell line), liver cancer cell line (Huh-7 and HepG2), brain glioma cell line (C6), lung cancer (A549), prostate cancer (PC3), kidney cancer (Caki-2), normal liver cell line (AML-12), embryonic kidney cell line (HEK-293), neural stem cell line (NE-4C) and normal breast epithelial cell line (MCF10a)).
as §1, §2, §3, §4, §5

A549 = assay: CCK-8 cell viability, A549 lung cancer cell line; type: cell-based, human; details: serum-free medium, 24 hours, mean ± SD of 2 to 3 experiments
Description: as §6, §1, §2, §3, §4, §5

NE-4C = assay: CCK-8 cell viability, NE-4C neural stem cell line; type: cell-based; details: for IC50: serum-free medium, 24 hours, CCK-8, mean ± SD of 2 to 3 experiments, read-out: IC50 NC-4C (Neural stem cell); for toxicity against brain neurons, in words: brain neurons (NE-4C), FIG. 4
Description: as §1, §2, §3, §4, §5

[1] = system: several cancer cell lines; assay: CCK-8 cell viability, panel of cancer cell lines compared in words (FIGS. 3a to 3e); type: cell-based, human; details: for effect on cancer cell lines, in words: Log IC50, FIGS. 3a to 3e, no comparator; for effect on cancer cell lines compared with the rest of the compounds, in words / toxic effect on cancer cell lines compared with cisplatin and BTA, in words / cell toxicity on cancer cell lines compared with BTA, in words / cell toxicity on cancer cell lines compared with cisplatin, in words: Log IC50 comparison, FIGS. 3a to 3e; for effect on cancer cell lines compared with the rest of the compounds, in words: comparator the rest of the compounds; for toxic effect on cancer cell lines compared with cisplatin and BTA, in words: comparators cisplatin and BTA; for cell toxicity on cancer cell lines compared with BTA, in words: comparator BTA; for cell toxicity on cancer cell lines compared with cisplatin, in words: comparator cisplatin
Description: as §6, §1, §2
Further, FIGS. 3a to 3e show a graph in which a IC50 value which is obtained based on 2 to 3 times executions of the cell viability analysis is converted to a Log IC50 value. […] The comparative reliability values for BTA were expressed as […], ##p<0.01, and ## #p<0.001. A red line represents the value of cisplatin. A blue line represents the value of BTA.

MCF-7 = assay: CCK-8 cell viability, MCF-7 breast cancer cell line; type: cell-based, human; details: 24 hours, mean ± SD of 2 to 3 experiments
Description: as §6, §1, §2, §3, §4, §5

Huh-7 = assay: CCK-8 cell viability, Huh-7 liver cancer cell line; type: cell-based, human; details: 24 hours, mean ± SD of 2 to 3 experiments
Description: as §6, §1, §2, §3, §4, §5

HepG2 = assay: CCK-8 cell viability, HepG2 liver cancer cell line; type: cell-based, human; details: 24 hours, mean ± SD of 2 to 3 experiments
Description: as §6, §1, §2, §3, §4, §5

HeLa cell line = assay: CCK-8 cell viability, HeLa cervical cancer cell line; type: cell-based, human; details: serum-free medium, 24 hours, mean ± SD of 2 to 3 experiments
Description: as §6, §1, §2, §3, §4, §5

PC3 = assay: CCK-8 cell viability, PC3 prostate cancer cell line; type: cell-based, human; details: 24 hours, mean ± SD of 2 to 3 experiments
Description: as §6, §1, §2, §3, §4, §5

HT-29 cell line = assay: CCK-8 cell viability, HT-29 colorectal cancer cell line; type: cell-based, human; details: serum-free medium, 24 hours, mean ± SD of 2 to 3 experiments
Description: as §6, §1, §2, §3, §4, §5

HEK-293 = assay: CCK-8 cell viability, HEK-293 embryonic kidney cell line; type: cell-based; details: serum-free medium, 24 hours, mean ± SD of 2 to 3 experiments, read-out: IC50 HEK293 (embryonic kidney)
Description: as §6, §1, §2, §3, §4, §5

C6 = assay: CCK-8 cell viability, C6 brain glioma cell line; type: cell-based, human; details: 24 hours, mean ± SD of 2 to 3 experiments
Description: as §6, §1, §2, §3, §4, §5

Caki-2 = assay: CCK-8 cell viability, Caki-2 kidney cancer cell line; type: cell-based, human; details: serum-free medium, 24 hours, mean ± SD of 2 to 3 experiments
Description: as §6, §1, §2, §3, §4, §5

MCF10a = assay: CCK-8 cell viability, MCF10a normal breast epithelial cell line; type: cell-based; details: for IC50: serum-free medium, 24 hours, CCK-8, mean ± SD of 2 to 3 experiments; for cytotoxicity against breast epithelial cells, in words: breast epithelial cells (MCF10a), FIG. 4
Description: as §6, §1, §2, §3, §4, §5

[2] = Homo sapiens, Huh-7, serum-free medium
[3] = Homo sapiens, HepG2, serum-free medium
[4] = Rattus norvegicus, C6, serum-free medium
[5] = Homo sapiens, MDA-MB-231, serum-free medium
[6] = Homo sapiens, MCF7, serum-free medium

Structure (SMILES) | IC50 (AML12) | IC50 (MDA-MB-231; serum-free medium) | IC50 (A549) | IC50 (NE-4C) | IC50 (MCF-7; serum-free medium) | IC50 (Huh-7; serum-free medium) | IC50 (HepG2; serum-free medium) | IC50 (HeLa cell line) | IC50 (PC3; serum-free medium) | IC50 (HT-29 cell line) | IC50 (HEK-293) | IC50 (C6; serum-free medium) | IC50 (Caki-2) | IC50 (MCF10a) | IC50 (NE-4C; Neural stem cell) | toxicity against brain neurons, in words (NE-4C) | IC50 (Huh-7; [2]) | IC50 (C6; [4]) | cytotoxicity against breast epithelial cells, in words (MCF10a) | toxicity against normal hepatocytes, in words (AML12) | further results
N.N.[Cl][Pt][Cl] [Cisplatin, cisplatin, reference compound] | 32.1 ± 4.45 µM | 181 ± 48.7 µM | > 500 µM | 9.01 ± 0.28 µM | 204 ± 27.3 µM | 38.6 ± 18.5 µM | 54.2 ± 31.8 µM | 26.2 ± 5.61 µM | > 500 µM | 39.1 ± 0.61 µM | 65.5 ± 4.06 µM | 227 ± 34.3 µM | > 500 µM | 96 ± 6.72 µM |  |  |  |  |  |  | effect on cancer cell lines, in words [1]: did not have a great effect on lung cancer, prostate cancer, and kidney cancer
NCC(N)C(=O)Nc1ccc(-c2nc3ccccc3s2)cc1 (centres unmarked) [Example L1, 2,3-diamoniumtrifluoroacetate-N-(4-benzothiazol-2-yl-phenyl)-propionamide] |  |  |  |  |  |  |  |  |  |  |  |  |  |  | 36.8 ± 3.66 µM | greater toxicity than BTA did | 69.1 ± 5.25 µM | 77.8 ± 9.73 µM | weak cytotoxicity |  | effect on cancer cell lines compared with the rest of the compounds, in words [1]: superior effects on breast cancer, liver cancer, brain glioma, lung cancer, prostate cancer, and kidney cancer than the rest of the compounds did; toxic effect on cancer cell lines compared with cisplatin and BTA, in words [1]: greater toxic effect against cancer cell lines of colorectal cancer, breast cancer, liver cancer, brain glioma, lung cancer, prostate cancer, and kidney cancer than the cisplatin and BTA did; IC50 (HepG2; [3]): 5.94 ± 0.501 µM; IC50 (PC3; Homo sapiens, PC-3, serum-free medium): 94.99 ± 0.82 µM
NCC(N)C(=O)Nc1ccc(-c2nc3ccccc3s2)cc1.[Cl][Pt][Cl] (centres unmarked) [Example L1Pt] | 139.1 ± 0.85 µM | 80.8 ± 10.5 µM | 167 ± 11.2 µM | 25.7 ± 1.66 µM | 59 ± 11.1 µM | 69.4 ± 1.24 µM | 7.49 ± 0.159 µM | 64.75 ± 0.31 µM | 55.7 ± 7.47 µM | 42.6 ± 5.61 µM | 54.9 ± 2.83 µM | 93.3 ± 22.7 µM | 106 ± 8.54 µM | 46.9 ± 5.14 µM |  | greater toxicity than BTA did |  |  | weak cytotoxicity |  | effect on cancer cell lines compared with the rest of the compounds, in words [1]: superior effects on breast cancer, liver cancer, brain glioma, lung cancer, prostate cancer, and kidney cancer than the rest of the compounds did; toxic effect on cancer cell lines compared with cisplatin and BTA, in words [1]: greater toxic effect against cancer cell lines of colorectal cancer, breast cancer, liver cancer, brain glioma, lung cancer, prostate cancer, and kidney cancer than the cisplatin and BTA did
O=C(Nc1ccc(-c2nc3ccccc3s2)cc1)C(C/N=C/c1ccccc1O)/N=C/c1ccccc1O (centres unmarked) [Example L2, N-(4-benzothiazol-2-yl-phenyl)-2,3-bis-[(2-hydroxy-benzylidene)-amino]-propionamide] |  |  |  |  |  |  |  |  |  |  |  |  |  |  | 28.23 ± 0.06 µM | greater toxicity than BTA did | 95.9 ± 15 µM | 143 ± 32.7 µM | weak cytotoxicity | did not exhibit liver cytotoxicity | IC50 (MDA-MB-231; [5]): 152 ± 19.9 µM; cell toxicity on cancer cell lines compared with BTA, in words [1]: greater cell toxicity against colorectal cancer, breast cancer, liver cancer, brain glioma, lung cancer, prostate cancer, and kidney cancer than BTA did; cell toxicity on cancer cell lines compared with cisplatin, in words [1]: greater toxic effect on cancer cell lines on lung cancer, prostate cancer, and kidney cancer than cisplatin did; IC50 (MCF-7; [6]): 98.2 ± 7.92 µM; IC50 (HepG2; [3]): 14.2 ± 7.06 µM; IC50 (HeLa cell line; Homo sapiens, HeLa): 47.1 ± 6.07 µM
O=C(Nc1ccc(-c2nc3ccccc3s2)cc1)C1CN=Cc2ccccc2[O][Pt][O]c2ccccc2C=N1 (centres unmarked) [Example L2Pt] | > 500 µM | > 500 µM | > 500 µM | 47 ± 4.12 µM | > 500 µM | 197 ± 3.75 µM | 31.6 ± 3.62 µM | 221 ± 15.8 µM | > 500 µM | 173 ± 3.23 µM | 212 ± 14.9 µM | > 500 µM | > 500 µM | > 500 µM |  | greater toxicity than BTA did |  |  | weaker cytotoxicity or no cytotoxicity than cisplatin and BTA did | did not exhibit liver cytotoxicity | cell toxicity on cancer cell lines compared with BTA, in words [1]: greater cell toxicity on colorectal cancer than BTA did
O=C(Nc1ccc(-c2nc3ccccc3s2)cc1)C1CNC(c2ccccn2)=N1 (centres unmarked) [Example L3, N-(4-(benzo[d]thiazol-2-yl)phenyl)-2-(pyridin-2-yl)-4,5-dihydro-1H-imidazole-4-carboxamide] |  |  |  |  |  |  |  |  |  |  |  |  |  |  | 22.4 ± 2.44 µM | greater toxicity than BTA did | 178 ± 2.6 µM | 142 ± 15.4 µM | weaker cytotoxicity or no cytotoxicity than cisplatin and BTA did | did not exhibit liver cytotoxicity | IC50 (MDA-MB-231; [5]): > 500 µM; cell toxicity on cancer cell lines compared with BTA, in words [1]: greater cell toxicity on colorectal cancer breast cancer and brain glioma than BTA did; cell toxicity on cancer cell lines compared with cisplatin, in words [1]: greater cell toxicity on prostate cancer and kidney cancer than cisplatin did; IC50 (MCF-7; [6]): 190 ± 16.6 µM; IC50 (HeLa cell line; Homo sapiens, HeLa): 99 ± 3.54 µM
O=C(Nc1ccc(-c2nc3ccccc3s2)cc1)C1CNC(c2ccccn2)=N1.[Cl][Pt][Cl] (centres unmarked) [Example L3Pt] | > 500 µM | > 500 µM | > 500 µM | 32.4 ± 6.02 µM | > 500 µM | 173 ± 24.3 µM | > 500 µM | > 500 µM | > 500 µM | > 500 µM | 206 ± 7.45 µM | > 500 µM | > 500 µM | > 500 µM |  | greater toxicity than BTA did |  |  | weaker cytotoxicity or no cytotoxicity than cisplatin and BTA did | did not exhibit liver cytotoxicity | effect on cancer cell lines, in words [1]: only exerts cell toxicity effects on liver cancer
